The target of data set [1] is Voltage-gated inwardly rectifying potassium channel KCNH2 (Homo sapiens, UniProt Q12809).
The target in data set [2] is D(2) dopamine receptor (Homo sapiens, UniProt P14416). In words: Antagonist activity at human dopamine D2L receptor expressed in CHO cells assessed as inhibition of quinelorane-induced [35S]GTPgammaS binding. Type of data set: functional, cell-based. (GTPγS is a poorly hydrolysed GTP analogue; its binding reports G protein activation.)
Data set [3] concerns the target D(3) dopamine receptor (Homo sapiens, UniProt P35462). In words: Antagonist activity at human dopamine D3 expressed in CHO cells assessed as inhibition of quinelorane-induced [35S]GTPgammaS binding. Type of data set: functional, cell-based.
The target of data set [4] is Cytochrome P450 2C9 (Homo sapiens, UniProt P11712).
Description: Inhibition of human CYP2C9
Data set [5] has as its system Liver microsomes. The note with it: rat, 0.5 h, 0.5 µM.
Data set [6] addresses Cytochrome P450 2D6 (Homo sapiens, UniProt P10635).
Description: Inhibition of human CYP2D6
Data set [7] concerns the target Cytochrome P450 2C19 (Homo sapiens, UniProt P33261).
Description: Inhibition of human CYP2C19
Data set [8] concerns the target T1, Cytochrome P450 1A2 (Homo sapiens, UniProt P05177).
T1 sequence (P05177 whole entry): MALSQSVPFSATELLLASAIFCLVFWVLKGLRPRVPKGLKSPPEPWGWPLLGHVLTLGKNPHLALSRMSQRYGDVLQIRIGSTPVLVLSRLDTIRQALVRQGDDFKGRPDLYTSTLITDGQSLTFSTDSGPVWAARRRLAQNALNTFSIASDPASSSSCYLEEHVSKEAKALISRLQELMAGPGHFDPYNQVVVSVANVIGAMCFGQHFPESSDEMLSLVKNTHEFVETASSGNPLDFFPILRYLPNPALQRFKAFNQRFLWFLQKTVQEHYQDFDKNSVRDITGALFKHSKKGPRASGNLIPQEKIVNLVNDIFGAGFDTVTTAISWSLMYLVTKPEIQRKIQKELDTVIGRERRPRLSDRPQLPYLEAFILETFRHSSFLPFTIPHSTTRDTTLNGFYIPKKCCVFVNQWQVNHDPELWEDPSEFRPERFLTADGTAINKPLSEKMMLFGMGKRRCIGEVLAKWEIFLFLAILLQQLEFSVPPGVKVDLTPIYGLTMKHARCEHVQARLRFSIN
Description: Inhibition of human CYP1A2

The test system of data set [9] is Liver microsomes. The following applies: human, 0.5 h, 0.5 µM.
In data set [10] the target is Cytochrome P450 3A4 (Homo sapiens, UniProt P08684).
Chain of Cytochrome P450 3A4 (P08684 whole entry): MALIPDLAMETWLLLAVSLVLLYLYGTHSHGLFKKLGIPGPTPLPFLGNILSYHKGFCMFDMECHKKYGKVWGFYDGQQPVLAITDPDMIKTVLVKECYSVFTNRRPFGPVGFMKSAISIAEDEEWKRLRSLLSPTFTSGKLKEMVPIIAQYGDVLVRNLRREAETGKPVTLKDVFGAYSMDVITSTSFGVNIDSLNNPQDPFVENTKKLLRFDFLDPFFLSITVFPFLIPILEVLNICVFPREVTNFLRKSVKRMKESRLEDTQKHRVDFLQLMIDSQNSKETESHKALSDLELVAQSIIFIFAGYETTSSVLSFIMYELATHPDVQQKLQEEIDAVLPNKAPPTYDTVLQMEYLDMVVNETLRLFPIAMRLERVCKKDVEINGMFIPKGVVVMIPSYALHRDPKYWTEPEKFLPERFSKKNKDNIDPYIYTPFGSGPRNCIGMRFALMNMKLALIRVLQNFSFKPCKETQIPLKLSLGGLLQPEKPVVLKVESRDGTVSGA
Description: Inhibition of human CYP3A4

Chain of D(2) dopamine receptor (P14416 whole entry): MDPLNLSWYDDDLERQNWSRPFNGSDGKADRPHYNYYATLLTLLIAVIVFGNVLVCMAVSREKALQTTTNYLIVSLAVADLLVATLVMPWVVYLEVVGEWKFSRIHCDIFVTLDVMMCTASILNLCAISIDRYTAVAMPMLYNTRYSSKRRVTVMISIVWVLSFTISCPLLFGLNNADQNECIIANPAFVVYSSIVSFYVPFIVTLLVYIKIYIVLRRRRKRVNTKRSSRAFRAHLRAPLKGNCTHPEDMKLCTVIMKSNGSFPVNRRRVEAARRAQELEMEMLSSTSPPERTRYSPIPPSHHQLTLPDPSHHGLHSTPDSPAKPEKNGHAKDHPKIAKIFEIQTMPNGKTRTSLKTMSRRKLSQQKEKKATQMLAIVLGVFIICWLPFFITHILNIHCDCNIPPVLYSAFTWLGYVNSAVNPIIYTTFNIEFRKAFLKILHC
Chain of D(3) dopamine receptor (P35462 whole entry): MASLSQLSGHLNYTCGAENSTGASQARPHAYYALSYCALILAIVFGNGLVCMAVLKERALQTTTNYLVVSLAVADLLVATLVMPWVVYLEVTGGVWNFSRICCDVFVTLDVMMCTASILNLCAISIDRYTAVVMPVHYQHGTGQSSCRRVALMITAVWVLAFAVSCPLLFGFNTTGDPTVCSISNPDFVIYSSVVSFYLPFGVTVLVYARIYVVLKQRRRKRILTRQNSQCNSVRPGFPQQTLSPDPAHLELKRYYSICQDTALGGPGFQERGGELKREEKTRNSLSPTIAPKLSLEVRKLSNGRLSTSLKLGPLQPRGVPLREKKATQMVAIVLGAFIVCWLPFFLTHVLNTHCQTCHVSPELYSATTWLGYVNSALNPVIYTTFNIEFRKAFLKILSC
Chain of Voltage-gated inwardly rectifying potassium channel KCNH2 (Q12809 whole entry): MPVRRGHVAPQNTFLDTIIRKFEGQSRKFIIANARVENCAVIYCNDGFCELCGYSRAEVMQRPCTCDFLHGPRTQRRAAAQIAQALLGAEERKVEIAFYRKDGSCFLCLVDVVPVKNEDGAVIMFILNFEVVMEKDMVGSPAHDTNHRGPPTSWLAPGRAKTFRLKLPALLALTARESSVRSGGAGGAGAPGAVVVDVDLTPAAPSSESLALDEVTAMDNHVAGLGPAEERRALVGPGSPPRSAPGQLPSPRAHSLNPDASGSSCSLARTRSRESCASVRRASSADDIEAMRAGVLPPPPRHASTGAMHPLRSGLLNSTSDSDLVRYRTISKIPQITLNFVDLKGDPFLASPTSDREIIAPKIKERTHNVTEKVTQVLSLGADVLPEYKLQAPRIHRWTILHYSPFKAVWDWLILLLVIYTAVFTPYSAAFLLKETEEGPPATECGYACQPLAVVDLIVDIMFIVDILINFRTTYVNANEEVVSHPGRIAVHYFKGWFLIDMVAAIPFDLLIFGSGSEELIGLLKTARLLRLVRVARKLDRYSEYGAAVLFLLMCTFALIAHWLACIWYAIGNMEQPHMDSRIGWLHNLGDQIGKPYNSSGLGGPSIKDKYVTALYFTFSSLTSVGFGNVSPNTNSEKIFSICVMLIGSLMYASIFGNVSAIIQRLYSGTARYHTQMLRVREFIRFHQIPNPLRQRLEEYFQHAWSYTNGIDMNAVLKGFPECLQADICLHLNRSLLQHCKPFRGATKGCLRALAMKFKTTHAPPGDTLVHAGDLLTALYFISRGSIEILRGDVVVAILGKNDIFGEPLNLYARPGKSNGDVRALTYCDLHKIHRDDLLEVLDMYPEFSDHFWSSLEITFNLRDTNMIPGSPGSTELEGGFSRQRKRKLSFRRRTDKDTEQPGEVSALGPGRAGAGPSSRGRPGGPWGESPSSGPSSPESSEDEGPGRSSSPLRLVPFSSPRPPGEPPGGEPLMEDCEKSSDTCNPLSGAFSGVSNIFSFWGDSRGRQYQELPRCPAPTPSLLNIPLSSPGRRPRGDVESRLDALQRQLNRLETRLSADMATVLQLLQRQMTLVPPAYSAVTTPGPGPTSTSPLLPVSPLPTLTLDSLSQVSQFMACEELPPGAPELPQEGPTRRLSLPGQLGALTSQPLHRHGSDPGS
Chain of Cytochrome P450 2C9 (P11712 whole entry): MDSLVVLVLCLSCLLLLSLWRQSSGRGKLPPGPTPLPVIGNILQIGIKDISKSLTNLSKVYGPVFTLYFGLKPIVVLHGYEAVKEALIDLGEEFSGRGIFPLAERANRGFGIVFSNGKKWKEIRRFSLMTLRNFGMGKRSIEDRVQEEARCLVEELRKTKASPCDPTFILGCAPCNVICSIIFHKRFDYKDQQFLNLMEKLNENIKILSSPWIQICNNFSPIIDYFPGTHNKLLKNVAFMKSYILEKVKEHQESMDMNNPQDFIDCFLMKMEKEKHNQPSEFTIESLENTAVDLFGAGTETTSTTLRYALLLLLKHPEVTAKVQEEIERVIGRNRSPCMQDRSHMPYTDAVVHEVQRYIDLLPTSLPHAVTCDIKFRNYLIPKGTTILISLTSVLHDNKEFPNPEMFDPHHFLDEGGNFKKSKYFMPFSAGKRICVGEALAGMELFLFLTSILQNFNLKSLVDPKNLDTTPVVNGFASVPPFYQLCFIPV
Chain of Cytochrome P450 2D6 (P10635 whole entry): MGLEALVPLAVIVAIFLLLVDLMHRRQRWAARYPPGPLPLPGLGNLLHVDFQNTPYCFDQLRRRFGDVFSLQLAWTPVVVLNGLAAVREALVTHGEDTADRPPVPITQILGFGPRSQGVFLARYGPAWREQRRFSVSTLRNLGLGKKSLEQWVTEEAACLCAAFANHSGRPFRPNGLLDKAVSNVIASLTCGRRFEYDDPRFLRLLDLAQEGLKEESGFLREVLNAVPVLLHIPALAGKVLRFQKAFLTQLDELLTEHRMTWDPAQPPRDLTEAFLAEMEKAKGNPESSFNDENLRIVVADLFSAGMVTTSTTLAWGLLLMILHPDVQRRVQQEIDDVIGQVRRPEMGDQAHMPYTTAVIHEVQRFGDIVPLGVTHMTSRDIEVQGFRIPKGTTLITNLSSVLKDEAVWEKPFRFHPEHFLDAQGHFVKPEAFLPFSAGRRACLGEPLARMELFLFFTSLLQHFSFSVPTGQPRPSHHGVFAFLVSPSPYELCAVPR
Chain of Cytochrome P450 2C19 (P33261 whole entry): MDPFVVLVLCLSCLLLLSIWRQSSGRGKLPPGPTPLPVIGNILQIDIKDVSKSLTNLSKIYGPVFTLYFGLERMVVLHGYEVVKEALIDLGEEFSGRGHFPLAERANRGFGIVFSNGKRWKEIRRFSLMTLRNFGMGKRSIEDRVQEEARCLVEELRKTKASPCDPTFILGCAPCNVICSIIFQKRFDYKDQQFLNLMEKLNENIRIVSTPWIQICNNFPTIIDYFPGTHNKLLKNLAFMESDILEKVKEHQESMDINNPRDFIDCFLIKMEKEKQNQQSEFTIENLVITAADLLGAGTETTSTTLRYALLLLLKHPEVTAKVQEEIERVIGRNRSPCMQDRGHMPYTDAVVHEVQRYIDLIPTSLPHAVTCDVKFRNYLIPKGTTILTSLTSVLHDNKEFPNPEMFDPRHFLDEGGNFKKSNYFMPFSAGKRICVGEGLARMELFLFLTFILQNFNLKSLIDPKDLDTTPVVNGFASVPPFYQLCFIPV

Consider `Cc1nc(C)c(-c2nnc(SCCCN3CCC4(CCc5ccc(F)cc54)C3)n2C)s1` (centres undefined), for which, in [1], it took 6310 nM to reach half-maximal inhibition (IC50). The Ki (in general, a dissociation constant, usually derived from enzyme kinetics or from competition with a known ligand) was 398 nM in [2] and 50.1 nM in [3].
In the case of `Cc1ncoc1-c1nnc(SCCCN2[C@@H]3CC[C@H]2C[C@@H](c2ccc(C(C)(C)C)cc2)C3)n1C`, the IC50 in [4], in data set [6], in [7], in [8] and in data set [10] was greater than 5000 nM in each case. The CL in [5] was 7.9 mL/min/g; in data set [9] it was 0.9 mL/min/g. For the same molecule, the figures for the Ki in data set [2] and in [3] were 398 nM and 0.631 nM, respectively.
`Cc1ncoc1-c1nnc(SCCCNC2CC3CC3(c3ccccc3)C2)n1C` (centres undefined): the inhibition constant (Ki) in [2] is 251 nM; in [3], 50.1 nM.
The like results for `Cc1ncoc1-c1nnc(SCCCN2[C@@H]3CC[C@H]2C[C@@H](c2ccc(C(F)(F)F)cc2)C3)n1C` were, in that order, 398 nM and 10 nM.
With `Cc1ncoc1-c1nnc(SCCCN2CCC3CC3(c3ccccc3)C2)n1C` (centres undefined), the Ki in [2] was 398 nM; in data set [3], 126 nM.
Regarding `Cc1ncoc1-c1nnc(SCCCN2[C@@H]3CC[C@H]2C[C@@H](c2ccc(C(F)(F)F)cc2F)C3)n1C`, the Ki in data set [2] was greater than 3160 nM; in [3] it was 6.31 nM.
As to `Cc1ncoc1-c1nnc(SCCCN2CCC3(c4ccccc4)CC3C2)n1C` (centres undefined), the Ki in [3] was 158 nM.
As to `Cc1ncoc1-c1nnc(SCCCN2CCC3CC3(c3ccc(C(F)(F)F)cc3)C2)n1C` (centres undefined), the IC50 – broadly, the midpoint of a concentration-inhibition curve – in data set [1] was 2000 nM. Besides, the Ki was 501 nM in data set [2] and 7.94 nM in [3].
For `Cc1ncoc1-c1nnc(SCCCN2CCC3(c4ccc(C(F)(F)F)cc4)CC3C2)n1C` (centres undefined), in [3], the Ki is 39.8 nM.
On to `Cc1ncoc1-c1nnc(SCCCN2CCC3CC3(c3cccc(C(F)(F)F)c3)C2)n1C` (centres undefined), for which the Ki in [3] was 12.6 nM.
For `Cc1ncoc1-c1nnc(SCCCN2CCC3(c4cccc(C(F)(F)F)c4)CC3C2)n1C` (centres undefined), the Ki in [2] is 2510 nM; in [3], 6.31 nM.
The like results for `Cc1ncoc1-c1nnc(SCCCN2CCC3CC3(c3ccc(C(F)(F)F)cc3)CC2)n1C` (centres undefined) were, in that order, 100 nM and 3.98 nM.
Turning to `Cc1nc(C)c(-c2nnc(SCCCN3CCC4CC4(c4ccc(C(F)(F)F)cc4)CC3)n2C)o1` (centres undefined), the Ki in [3] was 10 nM.
In turn, `Cc1nc(C)c(-c2nnc(SCCCN3CCC4CC4(c4ccc(C(F)(F)F)cc4)CC3)n2C)s1` (centres undefined) had an IC50 in data set [1] of 631 nM. Also, the Ki was 200 nM in data set [2] and 3.98 nM in [3].
`Cn1c(SCCCN2CCC3CC3(c3ccc(C(F)(F)F)cc3)CC2)nnc1-c1ccnnc1` (centres undefined): the Ki in [2] is 398 nM; in data set [3] it was 3.98 nM.
`Cc1ncoc1-c1nnc(SCCCN[C@@H]2CC[C@]3(c4ccc(C(F)(F)F)cc4F)CC23)n1C` (some centres undefined): the IC50 in data set [1] was 631 nM. The results for the Ki in [2] and in [3] were 200 nM and 3.16 nM, respectively.
Regarding `Cc1ncoc1-c1nnc(SCCCN[C@@H]2CC3C[C@]3(c3ccc(C(F)(F)F)cc3F)C2)n1C` (some centres undefined), the inhibitory constant (Ki) in data set [2] was greater than 3160 nM; in [3], 31.6 nM.
Regarding `Cc1ncoc1-c1nnc(SCCCN2CCC3(CCCc4cc(Br)ccc43)C2)n1C` (centres undefined), the Ki in data set [3] is 7.94 nM.
`Cc1ncoc1-c1nnc(SCCCN2CCC3(CCCc4ccc(Br)cc43)C2)n1C` (centres undefined): the Ki in [2] was 316 nM; in data set [3], 15.8 nM.
As to `COc1ccc2c(c1)CCCC21CCN(CCCSc2nnc(-c3ocnc3C)n2C)C1` (centres undefined), the figures for the Ki in data set [2] and in [3] were 1000 nM and 100 nM, respectively.
On the same counts, the results for `COc1cccc2c1CCCC21CCN(CCCSc2nnc(-c3ocnc3C)n2C)C1` (centres undefined) are 398 nM and 79.4 nM.
With `COc1ccc2c(c1)C1(CCC2)CCN(CCCSc2nnc(-c3ocnc3C)n2C)C1` (centres undefined), the Ki in [3] is 31.6 nM.
Regarding `Cc1ncoc1-c1nnc(SCCCN2CCC3(CCOc4ccccc43)C2)n1C` (centres undefined), the values for the inhibition constant (Ki) in [2] and in [3] were greater than 3160 nM and 100 nM, respectively.
As to `Cc1ncoc1-c1nnc(SCCCN2CCC3(CCc4cc(Br)ccc43)C2)n1C` (centres undefined), the results for the inhibition constant (Ki) in data set [2] and in data set [3] were 126 nM and 5.01 nM, respectively.
Take `Cc1ncoc1-c1nnc(SCCCN2CCC3(CCc4c(Br)cccc43)C2)n1C` (centres undefined): the results for the Ki in data set [2] and in data set [3] were 251 nM and 7.94 nM, respectively.
The like results for `Cc1ncoc1-c1nnc(SCCCN2CCC3(CCc4ccc(Br)cc43)C2)n1C` (centres undefined) were, in that order, 39.8 nM and 2.51 nM.
With `Cc1nc(C)c(-c2nnc(SCCCN3CCC4(CCc5cc(Cl)ccc54)C3)n2C)s1` (centres undefined), it took 2510 nM to reach half-maximal inhibition in data set [1] (IC50). In addition, the figures for the inhibition constant (Ki) in data set [2] and in data set [3] were 398 nM and 31.6 nM, respectively.
Turning to `Cc1ncoc1-c1nnc(SCCCN2CCC3(CCc4cc(F)ccc43)C2)n1C` (centres undefined), the Ki in data set [2] was 100 nM; in data set [3], 158 nM.
In data set [1], `Cc1ncoc1-c1nnc(SCCCNC2CC[C@]3(c4ccc(C(F)(F)F)cc4)CC23)n1C` (single isomer, unassigned) showed an IC50 of 2510 nM. The Ki is greater than 3160 nM in data set [2] and 251 nM in data set [3].
In [1], `Cc1ncoc1-c1nnc(SCCCN[C@@H]2CC[C@]3(c4ccc(C(F)(F)F)cc4)CC23)n1C` (stereo in doubt; 22) gave an IC50 of 251 nM. Moreover, the figures for the Ki in data set [2] and in [3] were greater than 3160 nM and 126 nM, respectively.
As to `Cc1ncoc1-c1nnc(SCCCN[C@@H]2CC[C@]3(c4ccc(C(F)(F)F)cc4)CC23)n1C` (stereo in doubt; 24), the IC50 in data set [4] is greater than 4000 nM; in [1] it was 631 nM; in data set [6] it was greater than 4000 nM; in [7], greater than 4000 nM; in [8], greater than 4000 nM; in data set [10], greater than 4000 nM. In addition, the CL in data set [5] and in data set [9] was less than 0.5 mL/min/g throughout. Further, the Ki in data set [2] is 501 nM; in data set [3], 3.98 nM.
In turn, `CCOc1ccc2c(c1)Oc1cc(OCC)ccc1C21OC(=O)c2ccccc21` [DIETHOXYFLOURESCEIN] registered an IC50 in data set [10] of 1000 nM.

The values are drawn from ChEMBL document CHEMBL1255216, “Exploration of the amine terminus in a novel series of 1,2,4-triazolo-3-yl-azabicyclo[3.1.0]hexanes as selective dopamine D3 receptor antagonists” (J Med Chem, 2010).
